Data taken from publication PMC6006164, “Natural cyclopeptide RA-V inhibits the NF-κB signaling pathway by targeting TAK1” (Cell Death & Disease, 2018).

Experiments:
[1] = tested on: HepG2 xenograft tumors; experiment: HepG2 xenograft in nude mice; type: in vivo, female athymic nude BALB/c mice
Experimental: Fig. 7 RA-V inhibits tumor growth and the expression of NF-κB target genes in a nude xenograft model. a–d Inhibition of the growth of HCT116 and HepG2 xenograft tumors by RA-V. Female athymic nude BALB/c mice bearing HCT116 (n = 8) or HepG2 (n = 7) xenograft tumors were intravenously injected with various concentrations of RA-V micelles or control micelles every other day. 5-FU (10 mg/kg) group as positive control. Effects of RA-V on the growth curves of subcutaneoue xenografts of HCT116 (a) and HepG2 (b) and effects on the tumor weight in the HCT116 (c) and HepG2 (d) models. e–f Tumors removed were photographed. g–h The expression of the NF-κB target genes, IL-8, MCP-1, and CXCL-1, in HCT116 (g) and HepG2 (h) tumor tissue from vehicle- and various concentrations of RA-V-treated group was determined by quantitative RT-PCR and normalized to GADPH expression. *, p < 0.05; **, p < 0.01; ***, p < 0.001
In total, 2 × 10^6 HCT116 or 3 × 10^6 HepG2 cells were subcutaneously injected into the right dorsal flank of 6- to 8-week-old female athymic nude BALB/c mice. After tumor volumes reached 100 mm^3, the tumor-bearing mice were randomly divided into several groups. The mice bearing HCT116 (n = 8) or HepG2 xenograft tumors (n = 7) were received the intravenous injection of vehicle micelles or various concentrations of RA-V micelles every other day. 5-FU (10 mg/kg) group as positive control. Body weights and tumor volumes were recorded every other day. Tumor volumes were calculated using the following formula: tumor volume (mm^3) = 0.52 × length × width^2. At the end of the experiments, the mice were killed. Tumor xenografts of each mouse were removed and weighed. Part of each tumor tissue was stored at liquid nitrogen for quantitative RT-PCR analysis. […] Serum alanine transaminase(ALT), aspartate transaminase(AST), and creatine kinase(CK) were determined using relevant kits (Nanjing Jiancheng) according to the manufacturer’s specific instructions.

[2] = tested on: IL-8 production; experiment: TNF-α-induced IL-8 production, ELISA; type: cell-based; details: HeLa; RA-V 12 h, 10 ng/mL TNF-α 2 h; ELISA of supernatant; dose-dependent
Experimental: Fig. 1 RA-V inhibits TNF-α- and LPS-induced activation of NF-κB. a Chemical structure of RA-V. b RA-V inhibited the NF-κB signaling pathway in a dose-dependent manner. HEK293T or HeLa cells were transfected with the 5 × κB-luciferase and pTK-Renilla reporters. Twenty-four hours after transfection, the cells were incubated with various concentrations of RA-V for 6 h, and then treated with 10 ng/mL TNF-α for 2 h before the luciferase activity assay and MTT assay. c RA-V reduced TNF-α-induced expression of NF-κB target genes. HEK293T or HeLa cells were treated with various concentrations of RA-V for 24 h and stimulated with 10 ng/mL TNF-α for 2 h. The expression of the NF-κB target genes, IL-8, MCP-1, and E-selectin was measured by quantitative RT-PCR and normalized to GADPH expression. d RA-V inhibited TNF-α-induced p65 phosphorylation, IκBα phosphorylation and IκBα degradation. HEK293T or HeLa cells were incubated with various concentrations of RA-V for 24 h and treated with 10 ng/mL TNF-α for 10 min. The cell lysates were prepared and subjected to western blot analysis with the indicated antibodies. e RA-V inhibited TNF-α-induced IL-8 production. […] The expression of IL-6 was measured. h RA-V inhibited LPS-induced p65 phosphorylation, IκBα phosphorylation. […] The protein expression was measured. i RA-V inhibited LPS-induced IL-6 production. […] The expression of IL-6 was measured.

[3] = Toxicity assessment in xenograft-bearing mice; type: in vivo, female athymic nude BALB/c mice
From the text: Fig. 8 Analysis of potential side effects for treatment of RA-V. a–b The change curves of body weights of BALB/c bearing HCT116 (a) or HepG2 (b) xenograft tumors (n = 8 or 7). c Representative hematoxylin–eosin staining of heart, kidney, spleen, lung, and liver from vehicle- and various concentrations of RA-V-treated group. d The evaluation of serum ALT, AST, and creatine kinase for vehicle- and various concentrations of the RA-V-treated group
In total, 2 × 10^6 HCT116 or 3 × 10^6 HepG2 cells were subcutaneously injected into the right dorsal flank of 6- to 8-week-old female athymic nude BALB/c mice. After tumor volumes reached 100 mm^3, the tumor-bearing mice were randomly divided into several groups. The mice bearing HCT116 (n = 8) or HepG2 xenograft tumors (n = 7) were received the intravenous injection of vehicle micelles or various concentrations of RA-V micelles every other day. 5-FU (10 mg/kg) group as positive control. Body weights and tumor volumes were recorded every other day. Tumor volumes were calculated using the following formula: tumor volume (mm^3) = 0.52 × length × width^2. At the end of the experiments, the mice were killed. Tumor xenografts of each mouse were removed and weighed. Part of each tumor tissue was stored at liquid nitrogen for quantitative RT-PCR analysis. Organs (heart, kidney, spleen, lung, and liver) from killed mice were also removed, fixed in the 4% formaldehyde solution for microscopic examination by hematoxylin–eosin staining. Serum alanine transaminase(ALT), aspartate transaminase(AST), and creatine kinase(CK) were determined using relevant kits (Nanjing Jiancheng) according to the manufacturer’s specific instructions.

[4] = HepG2, n = 7, RA-V micelles i.v. every other day, vs control

RA-V
tumor growth rate (tumor volume) [1, 4]: significantly reduced | tumor weight [1, 4]: obviously lower | expression of IL-8, MCP-1, and CXCL-1 in tumor tissue ([1]; HepG2 xenograft, quantitative RT-PCR): remarkable decreased | TNF-α-induced production of IL-8 [2]: inhibited | body weight ([3]; HCT116 or HepG2 xenograft mice, measured every other day, vs control): no obvious changes | toxic pathological changes in heart, kidney, spleen, lung and liver ([3]; hematoxylin–eosin staining, vs control): no obvious toxic pathological changes | levels of serum ALT, AST and creatine kinase ([3]; liver and heart toxicity, vs vehicle): no significant changes
